Data on 1 compound can be found in patent US11214787B2, “Modified beta-lactamases and methods and uses related thereto” (priority 2010, dated 2022).

The format of this data set is in vivo. As to conditions: beagle dogs; single dose ceftriaxone 30 mg/kg i.v., without beta-lactamase. How it is done:
The capability of Bacillus licheniformis D276N mutant beta-lactamase enzyme to inactivate ceftriaxone (CRO) which has been excreted into the gastrointestinal tract during parenteral therapy was investigated in a dog model. Laboratory beagles of the study have a nipple valve surgically inserted in jejunum approximately 170 cm distal to pylorus enabling collection of samples for the analysis. […] Five beagle dogs were utilized in each experiment.
The study was performed as two sequential treatments: In the first treatment (control experiment without beta-lactamase therapy), a single dose of ceftriaxone (30 mg of ceftriaxone (CRO) per kg of body weight which corresponds to about 1 gram dose of CRO in humans) was administered intravenously minutes after the first feeding of the dogs. Jejunal samples were collected at various time points during ten hours. The dogs were fed again five hours and forty minutes after the ceftriaxone administration in order to induce the biliary excretion of ceftriaxone accumulated in gallbladder.
Jejunal chyme samples were immediately freezed and stored at −20° C. to await the analysis. Chyme samples were pretreated with perchloric-citric acid in order to precipitate interfering substances. […] A reverse-phase high-pressure chromatography method with UV detection was used for the quantification of ceftriaxone in supernatants. […]

Regarding `CO/N=C(\C(=O)N[C@@H]1C(=O)N2C(C(=O)O)=C(CSc3nc(=O)c(=O)[nH]n3C)CS[C@H]12)c1csc(N)n1` [ceftriaxone], the “highest jejunal ceftriaxone concentration” value is recorded as “about 1500 micrograms per gram of jejunal chyme” and the “time of highest jejunal ceftriaxone concentration after injection” value came out at 60 min.
